In PMC6013775, “Inhibition of the key enzyme of sialic acid biosynthesis by C6-Se modified N-acetylmannosamine analogs” (Chemical Science, 2016):
Entries after “also recorded” stand apart in the source; their conditions may differ.

Tests used:
[1] = system: UDP-GlcNAc-2-epimerase/MNK kinase; parameters: method as in PMID 12067740, PMID 15368395, PMID 22343627; details: 300 μM; cited from earlier work
[2] = molecular target: T1, human MNK (N-acetylmannosamine kinase) (Homo sapiens, UniProt Q9Y223); assay: MNK activity, coupled optical assay based on NADH consumption; type: biochemical; details: for IC50: purified human MNK, ManNAc 125 μM, ATP, means ± SEM, read-out: IC50 for MNK inhibition
T1 construct: His; made in house; host or cells: Escherichia coli BL21-CodonPlus (DE3)-RIL
T1 sequence (Q9Y223 406-722 limits assumed): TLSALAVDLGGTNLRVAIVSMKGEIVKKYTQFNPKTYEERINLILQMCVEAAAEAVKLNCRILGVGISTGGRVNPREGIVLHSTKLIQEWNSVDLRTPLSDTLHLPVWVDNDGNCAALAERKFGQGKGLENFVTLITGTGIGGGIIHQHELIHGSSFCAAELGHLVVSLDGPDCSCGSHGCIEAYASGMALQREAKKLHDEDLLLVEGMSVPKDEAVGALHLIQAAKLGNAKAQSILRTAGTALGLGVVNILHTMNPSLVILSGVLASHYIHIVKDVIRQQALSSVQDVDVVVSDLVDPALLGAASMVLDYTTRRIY
Description: N-Acetylmannosamine kinase and N-acetylglucosamine kinase expression and […]
Human N-acetylmannosamine kinase (MNK) was expressed and purified using an established method.1 Therefore, his-tagged MNK was expressed in BL21-CodonPlus (DE3)-RIL Escherichia coli (Stragene). Purification was performed by Ni-NTA affinity chromatography, and subsequently size exclusion chromatography on a SuperdexTM HighLoad 16/600 column (GE Healthcare). […]
To evaluate their purity, protein samples were mixed with SDS-PAGE sample buffer, denatured at 90 °C for 1 min and separated by a 10% SDS-PAGE gel. Proteins were visualized with Coomassie G-250 staining solution (Biorad), and PageRuler Prestained Plus (Biorad) was used as a marker (Figure S1 ).
Figure S1. SDS-PAGE of His-tagged MNK (His-MNK) and GST-tagged GNK
(GST-GNK) after affinity chromatography and size exclusion chromatography.
Apparent molecular masses given by the marker are indicated on the left side.
1 J. Martinez, L. D. Nguyen, S. Hinderlich, R. Zimmer, E. Tauberger, W. Reutter, W. Saenger, H. Fan
2 W.A. Weihofen, M. Berger, H. Chen, W. Saenger, and S. Hinderlich, J. Mol. Biol., 2006, 364, 388.
(1 picture or pasted object on this page, not shown here)
Enzyme activity and inhibition studies using N-acetylmannosamine kinase, N-acetylglucosamine kinase and yeast hexokinase
Evaluation MNK activity in presence of the compounds 11, 12, 14b, 16b and 18b The effects of compounds 11, 12, 14b, 16b, or 18b on MNK enzyme activity were evaluated using a coupled optical assay. 55 µl reaction mixture contained the following buffers and reagents: 39.5 µl buffer A (65 mM MgCl2, 200 mM Tris-HCl, pH 8.1), 5 µl ATP (50 mM), 3.5 µl NADH (30 mM), 2 µl phosphoenolpyruvate (100 mM), 2 U pyruvate-kinase, 2 U lactate-dehydrogenase, 5 µl ManNAc of varying concentrations. Subsequently, 10 µl of the compounds 11, 12, 14b, 16b and 18b were added in varying concentrations. The reaction was initiated by adding 0.6 µg MNK in 35 µL buffer B (10 mM Tris-HCl, 150 mM NaCl, pH 8.0). Samples were incubated at 37°C. Spectrophotometric measurements of NADH concentration was performed at 340 nm. Results obtained were normalized to blanks, consisting of 55 µl reaction mixture, 10 µl H 2O and 35 µl buffer B without MNK.
GNK and hexokinase inhibition assays using compound 14b
To evaluate the specificity of the inhibitor 14b towards other sugar kinases, we performed further inhibition experiments using human GNK and hexokinase (HK) from yeast (Sigma, H-5000). 39.5 µl Buffer A (see above), 5 µl ATP (50 mM), 3.5 µl NADH (30 mM), 2 µl phosphoenolpyruvate (100 mM), 2 U pyruvate-kinase, 2 U lactate-dehydrogenase, 5 µl GlcNAc (7.5 mM, for GNK experiments), or 5 µl ManNAc (7.5 mM, for GNK experiments), or glucose (5 mM, for HK experiments), and 10 µl 14b (varying concentrations) were mixed with either 1 µg GNK or 0.2 µg HK in 35 µL buffer B. The decrease of NADH was measured in a spectrophotometer […]
5 mM for HK activity, respectively (Figure S2).
Figure S2. Inhibition of GNK and HK activity by 14b. Values are means ± SEM of […]

[3] = system: HepG2 cells; parameters: method as in PMID 1312935; details: 1 mM final concentration; cited from earlier work
[4] = system: Jurkat cells; assay: Cell surface sialylation, 6'-sialyl-LacNAc by FITC-PSL flow cytometry; type: cell-based; details: 72 h
[5] = system: Jurkat cells; details: human, 72 h, 100 μM
[6] = system: cell surface sialylation; parameters: method as in PMID 25278018; details: 500 μM final concentration in culture medium; cited from earlier work
[7] = system: purified ManNAc kinase; parameters: method as in PMID 12067740, PMID 15368395, PMID 22343627; details: 5 mM final concentration; cited from earlier work

CC(=O)NC1C(OP(=O)(O)OP(=O)(O)OCC(C=O)OC(C=O)n2ccc(=O)[nH]c2=O)OC(CO)C(O)C1O (stereo not drawn) [Compound 7, 2′,3′-dialdehydo-UPD-N-acetylglucosamine]
inhibition of the enzyme [1]: 93%

CC(=O)N[C@@H]1C(O)O[C@H](CS)[C@@H](O)[C@@H]1O (stereo partly drawn) [Compound 11]
IC50 [2]: > 10 mM

CO[C@H]1[C@H](O)[C@@H](CO)OC(O)[C@@H]1NC(C)=O (stereo partly drawn) [Compound 1, 3-O-methyl-N-acetyl-glucosamine]
reduction of incorporation rate of N-GlcNAc and N-ManNAc into glycoproteins [3]: 70%

CC(=O)N[C@@H]1C(O)O[C@H](C[Se]C[C@H]2OC(O)[C@@H](NC(C)=O)[C@@H](O)[C@@H]2O)[C@@H](O)[C@@H]1O (stereo partly drawn) [Compound 16b]
IC50 [2]: 3 mM

CC(=O)N[C@@H]1C(OC(C)=O)O[C@H](C[Se]C[C@H]2OC(OC(C)=O)[C@@H](NC(C)=O)[C@@H](OC(C)=O)[C@@H]2OC(C)=O)[C@@H](OC(C)=O)[C@@H]1OC(C)=O (stereo partly drawn) [Compound 16a]
effect on cell surface sialylation ([4]; tested concentrations up to 50 μM): no visible effect; also recorded: did not alter cell surface sialylation

CC(=O)N[C@@H]1C(OC(C)=O)O[C@H](C[Se][Se]C[C@H]2OC(OC(C)=O)[C@@H](NC(C)=O)[C@@H](OC(C)=O)[C@@H]2OC(C)=O)[C@@H](OC(C)=O)[C@@H]1OC(C)=O (stereo partly drawn) [Compound 14a]
reduction of 6'-sialyl-LacNAc entity ([4]; 50 μM in cell culture medium): approximately 85% | reduction of cell viability [5]: approximately 70%

CC(=O)N[C@@H]1C(O)O[C@H](CSSC[C@H]2OC(O)[C@@H](NC(C)=O)[C@@H](O)[C@@H]2O)[C@@H](O)[C@@H]1O (stereo partly drawn) [Compound 12]
fold higher IC50 in comparison to 14b ([2]; MNK IC50 ratio): approximately 500 fold | IC50 [2]: 4.2 mM

COC1C(O)C(CO)OC(O)C1NC(C)=O (stereo not drawn) [Compound 2]
cell surface sialylation reduced to [6]: 20%

CCCC[Se]C[C@H]1OC(O)[C@@H](NC(C)=O)[C@@H](O)[C@@H]1O (stereo partly drawn) [Compound 18b]
IC50 [2]: 1.9 mM

CC(=O)NC1C(O)OC(COC(C)=O)C(O)C1O (stereo not drawn) [Compound 3, 6-O-Ac-ManNAc]
inhibition of the enzyme [7]: 60%
